Measured values from patent US8394828B2 (Janssen Pharmaceutica, NV, priority 2003, dated 2013).
Values joined by “and” are separate entries in the source; they are usually repeats but may differ in a detail not shown here. Equal entries are not always repeated. Where two headings read alike, the source gives them in different places.

Columns and labels:
human VR1 [1] = biological target: T1, human VR1 (Homo sapiens, UniProt Q8NER1); assay: Human VR1 functional assay (intracellular Ca++, FLIPR, capsaicin challenge); type: cell-based
T1 construct: expressed in transfected cells; host or cells: HEK293
T1 sequence (Q8NER1 whole entry): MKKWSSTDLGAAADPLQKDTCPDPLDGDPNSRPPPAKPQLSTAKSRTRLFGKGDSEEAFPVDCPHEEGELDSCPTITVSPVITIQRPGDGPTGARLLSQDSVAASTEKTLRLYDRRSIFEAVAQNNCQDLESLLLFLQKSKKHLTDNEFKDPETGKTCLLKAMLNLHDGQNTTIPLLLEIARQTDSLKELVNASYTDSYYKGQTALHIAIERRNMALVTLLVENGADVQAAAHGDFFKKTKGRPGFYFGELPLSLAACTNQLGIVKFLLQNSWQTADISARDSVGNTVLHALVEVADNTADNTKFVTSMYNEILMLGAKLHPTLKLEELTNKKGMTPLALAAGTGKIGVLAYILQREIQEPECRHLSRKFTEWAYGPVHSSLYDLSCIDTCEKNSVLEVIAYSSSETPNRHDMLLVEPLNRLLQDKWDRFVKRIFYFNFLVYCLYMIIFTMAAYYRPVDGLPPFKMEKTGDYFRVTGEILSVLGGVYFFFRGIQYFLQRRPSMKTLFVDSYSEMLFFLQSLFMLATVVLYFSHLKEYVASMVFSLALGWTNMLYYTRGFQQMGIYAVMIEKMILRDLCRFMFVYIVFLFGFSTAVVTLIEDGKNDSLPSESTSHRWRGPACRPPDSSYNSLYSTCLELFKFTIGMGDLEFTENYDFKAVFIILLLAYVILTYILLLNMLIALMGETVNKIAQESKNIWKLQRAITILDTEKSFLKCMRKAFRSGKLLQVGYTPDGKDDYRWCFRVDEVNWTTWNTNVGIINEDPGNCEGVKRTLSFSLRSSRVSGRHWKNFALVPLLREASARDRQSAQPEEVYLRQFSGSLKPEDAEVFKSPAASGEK
Experimental: The functional activity of the test compounds was determined by measuring changes in intracellular calcium concentration using a Ca^++-sensitive fluorescent dye and FLIPR™ technology.
EC50 or IC50 values were determined from dose-response studies.

human VR1 [2] = biological target: T1, human VR1; assay: Human VR1 [3H] RTX binding assay; settings: for Ki: hVR1; for inhibition at 1 µM: compound at 1 μM
Experimental: Compounds of the present invention were tested for their ability to inhibit the binding of [^3H] RTX to hVR1 receptors in a [^3H]
HEK293 cells were transfected with human VR1 vanilloid receptors and washed with Hank's Balanced Salt Solution, dissociated with cell dissociation buffer (Sigma), and then centrifuged at 1000×g for 5 min. […] The pelleted membranes were kept in an −80° C. freezer.
Approximately 120 μg protein/ml from membranes were incubated with indicated concentrations of [^3H] RTX in 0.5 ml of the HEPES buffer (pH 7.4) containing 0.25 mg/mL fatty acid-free bovine serum albumin at 37° C. for 60 min. […] The tip of the microcentrifuge tube containing the pellet was cut off. Bound radioactivity was quantified by scintillation counting. Non-specific binding was tested in the presence of 200 nM unlabeled RTX.

[3] = hVR1, capsaicin challenge, read-out: FLIPR functional assay IC50 hVR1
[4] = 3H-RTX binding, read-out: 3H-RTX binding assay Ki hVR1
[5] = FLIPR functional assay IC50 hVR1 60 min, 60 min
[6] = 3H-RTX binding assay Ki hVR1, 3H-RTX binding

| SMILES | IC50 (human VR1 [1]; [3]) | Ki (human VR1 [2]; [4]) | IC50 (human VR1 [1]; [5]) | inhibition at 1 µM (human VR1 [2]; 3H-RTX binding) | Ki (human VR1 [2]; [6]) |
| --- | --- | --- | --- | --- | --- |
| O=C(Nc1cnc2ccccc2c1)c1ccc(N2CCN(C(=O)Cc3ccccc3)CC2)cc1 [4-(4-Phenylacetyl-piperazin-1-yl)-N-quinolin-3-yl-benzamide] | 10000 nM | 100000 nM | – | – | – |
| CN(CCc1ccccc1)c1ccc(C(=O)Nc2cnc3ccccc3c2)cn1 [6-(Methyl-phenethyl-amino)-N-quinolin-3-yl-nicotinamide] | 1200 nM | 243 nM | 540 nM | 97% | – |
| O=C(Nc1cnc2ccccc2c1)c1ccc(NCCc2ccccc2)cc1 [4-Phenethylamino-N-quinolin-3-yl-benzamide] | 9200 nM | – | – | 31% | – |
| O=C(Nc1cnc2ccccc2c1)c1cc2cc(Cl)ccc2[nH]1 [5-Chloro-1H-indole-2-carboxylic acid quinolin-3-ylamide] | 2800 nM | – | – | 36% | – |
| CC(C)(C)C1CCC(C(=O)Nc2cnc3ccccc3c2)CC1 (centres unmarked) [4-tert-Butyl-cyclohexanecarboxylic acid quinolin-3-ylamide] | 10000 nM | 64.9 nM | – | 97% | – |
| O=C(CCc1ccc2c(c1)CCN2CC1CCCCC1)Nc1cnc2ccccc2c1 [3-(1-Cyclohexylmethyl-2,3-dihydro-1H-indol-5-yl)-N-quinolin-3-yl-propionamide] | 1200 nM | 512 nM | – | 61% | – |
| O=C(CCc1ccc(C23CC4CCCC(CC(C4)C2)C3)cc1)Nc1cnc2ccccc2c1 [N-Quinolin-3-yl-3-(4-tricyclo{5.3.1.13,9}dodec-1-yl-phenyl)-propionamide] | – | 176 nM | 1900 nM | – | – |
| O=C(Nc1cnc2ccccc2c1)c1ccc2c(c1)CCN2C(=O)c1ccccc1 [1-Benzoyl-2,3-dihydro-1H-indole-5-carboxylic acid quinolin-3-ylamide] | 1450 nM | – | – | 3% | – |
| O=C(Nc1cnc2ccccc2c1)c1ccc(N2CCNCC2)cc1 [4-Piperazin-1-yl-N-quinolin-3-yl-benzamide] | 740 nM | – | – | 1% | – |
| CCCN(CCc1ccccc1)c1ccc(C(=O)Nc2cnc3ccccc3c2)cc1 [4-(Phenethyl-propyl-amino)-N-quinolin-3-yl-benzamide] | – | 71.6 nM | 360 nM | 105% | – |
| CCCCCNc1ccc(C(=O)Nc2cnc3ccccc3c2)cc1C [3-Methyl-4-pentylamino-N-quinolin-3-yl-benzamide] | 780 nM | 73.5 nM | 12 nM | 81% | – |
| CCCCC(C)(C)c1cc(OC)c(CCC(=O)Nc2cnc3ccccc3c2)c(OC)c1 [3-{4-(1,1-Dimethyl-pentyl)-2,6-dimethoxy-phenyl}-N-quinolin-3-yl-propionamide] | 1000 nM | – | – | 96% | 10.6 nM |
| CCCN1CCc2cc(CCC(=O)Nc3cnc4ccccc4c3)ccc21 [3-(1-Propyl-2,3-dihydro-1H-indol-5-yl)-N-quinolin-3-yl-propionamide] | 1060 nM | 1070 nM | – | 51% | – |
| CN1CCCc2cc(C(=O)Nc3cnc4ccccc4c3)ccc21 [1-Methyl-1,2,3,4-tetrahydro-quinoline-6-carboxylic acid quinolin-3-ylamide] | 690 nM | 341 nM | – | 79% | – |
| CN(C(=O)c1ccc(NC2CCCCC2)cc1)c1cnc2ccccc2c1 [4-Cyclohexylamino-N-methyl-N-quinolin-3-yl-benzamide] | 10000 nM | 2160 nM | – | – | – |
| CN(CC1CCCCC1)c1ccc(C(=O)Nc2cnc3ccccc3c2)cc1 [4-(Cyclohexylmethyl-methyl-amino)-N-quinolin-3-yl-benzamide] | 1700 nM | 15.7 nM | – | 104% | – |
| CN1CCc2cc(C(=O)Nc3cnc4ccccc4c3)ccc21 [1-Methyl-2,3-dihydro-1H-indole-5-carboxylic acid quinolin-3-ylamide] | 900 nM | – | – | 12% | – |
| O=C(Nc1cnc2ccccc2c1)c1ccc(NC2CCCCC2)nc1 [6-Cyclohexylamino-N-quinolin-3-yl-nicotinamide] | 990 nM | – | – | 1% | – |
| CCCCCn1ccc2cc(C(=O)Nc3cnc4ccccc4c3)ccc21 [1-Pentyl-1H-indole-5-carboxylic acid quinolin-3-ylamide] | – | – | 150 nM | 95% | 63.1 nM |
| CC(C)CCN(C)c1ccc(C(=O)Nc2cnc3ccccc3c2)cc1 [4-{Methyl-(3-methyl-butyl)-amino}-N-quinolin-3-yl-benzamide] | 280 nM | 554 nM | – | 90% | – |
| CC1CN(c2ccc(C(=O)Nc3cnc4ccccc4c3)cc2)CC(C)O1 (centres unmarked) [4-(2,6-Dimethyl-morpholin-4-yl)-N-quinolin-3-yl-benzamide] | 10000 nM | – | – | 18% | – |

| SMILES | IC50 (human VR1 [1]; [3]) | Ki (human VR1 [2]; [4]) | IC50 (human VR1 [1]; [5]) | inhibition at 1 µM (human VR1 [2]; 3H-RTX binding) | Ki (human VR1 [2]; [6]) |
| --- | --- | --- | --- | --- | --- |
| CCCCCCCN(C)c1ccc(C(=O)Nc2cnc3ccccc3c2)cn1 [6-(Heptyl-methyl-amino)-N-quinolin-3-yl-nicotinamide] | 1500 nM | 97.3 nM | – | 90% | – |
| Cc1ccc(C(C)CCN(C)c2ccc(C(=O)Nc3cnc4ccccc4c3)cc2)o1 (centres unmarked) [4-{Methyl-{3-(5-methyl-furan-2-yl)-butyl}-amino}-N-quinolin-3-yl-benzamide] | 1500 nM | 31.2 nM | – | 102% | – |
| CC(C)=CCC[C@H](C)CCN(C)c1ccc(C(=O)Nc2cnc3ccccc3c2)cc1 | – | 12.9 nM | 150 nM | 105% | – |
| O=C(Nc1cnc2ccccc2c1)c1ccc(N2CC3CCCC(C3)C2)cc1 [4-(3-Aza-bicyclo{3.3.1}non-3-yl)-N-quinolin-3-yl-benzamide] | 170 nM | 5.15 nM | 127 nM | 99% | – |
| CCC(C)(C)c1cc(OC)c(CCC(=O)Nc2cnc3ccccc3c2)c(OC)c1 [3-{4-(1,1-Dimethyl-propyl)-2,6-dimethoxy-phenyl}-N-quinolin-3-yl-propionamide] | 320 nM | 52 nM | – | 93% | – |
| CCCCN(C)c1ccc(C(=O)Nc2cnc3ccccc3c2)cc1 [4-(Methyl-butyl-amino)-N-quinolin-3-yl-benzamide] | 786 nM | 83.3 nM | 100 nM | 97% | – |
| CCCCCNc1ccc(C(=O)Nc2cnc3ccccc3c2)cn1 [6-Pentylamino-N-quinolin-3-yl-nicotinamide] | – | 281000 nM | 8000 nM | 57% | – |
| CCC=CCCCCCN(C)c1ccc(C(=O)Nc2cnc3ccccc3c2)cc1 [4-(Methyl-non-6-enyl-amino)-N-quinolin-3-yl-benzamide] | – | 36.5 nM | 48 nM | 101% | – |
| CCCCCc1ccc(C(=O)Nc2cnc3ccccc3c2)s1 [5-Pentyl-thiophene-2-carboxylic acid quinolin-3-ylamide] | 900 nM | 647 nM | – | 57% | – |
| CCCCCNc1ccc(C(=O)Nc2cnc3ccccc3c2)cc1 [4-Pentylamino-N-quinolin-3-yl-benzamide] | 8100 nM | 876 nM | 30000 nM | – | – |
| CN(c1ccc(C(=O)Nc2cnc3ccccc3c2)cc1)C1CCCC1 [4-(Cyclopentyl-methyl-amino)-N-quinolin-3-yl-benzamide] | 185 nM | 27.9 nM | – | – | – |
| CCCCCc1ccc(C=CC(=O)Nc2cnc3ccccc3c2)cc1 [3-(4-Pentyl-phenyl)-N-quinolin-3-yl-acrylamide] | – | 428 nM | 5200 nM | – | – |
| O=C(Nc1cnc2ccccc2c1)c1ccc(N2CCCCCCC2)nc1 [6-Azocan-1-yl-N-quinolin-3-yl-nicotinamide] | 5160 nM | 30.4 nM | 250 nM | 102% | – |
| CCC(C)c1ccc(CCC(=O)Nc2cnc3ccccc3c2)cc1 (centres unmarked) [3-(4-sec-Butyl-phenyl)-N-quinolin-3-yl-propionamide] | 1200 nM | 13.9 nM | – | – | – |
| CCCCCCN(CCCCCC)c1ccc(C(=O)Nc2cnc3ccccc3c2)cc1 [4-Dihexylamino-N-quinolin-3-yl-benzamide] | – | 185 nM | 2900 nM | 74% | – |
| Cc1cc(C(=O)Nc2cnc3ccccc3c2)ccc1N(C)CC1CCCCC1 [4-(Cyclohexylmethyl-methyl-amino)-3-methyl-N-quinolin-3-yl-benzamide] | 10000 nM | 68.3 nM | – | – | – |
| CN(Cc1ccccc1)c1ccc(CCC(=O)Nc2cnc3ccccc3c2)cc1 [3-{4-(Benzyl-methyl-amino)-phenyl}-N-quinolin-3-yl-propionamide] | 354 nM | 111 nM | – | – | – |
| CCC=CCCCN(C)c1ccc(C(=O)Nc2cnc3ccccc3c2)cc1 [4-(Hept-4-enyl-methyl-amino)-N-quinolin-3-yl-benzamide] | 1900 nM | 29.8 nM | 46 nM | 104% | – |
| CCCN(C)c1ccc(CCC(=O)Nc2cnc3ccccc3c2)cc1 [3-{4-(Methyl-propyl-amino)-phenyl}-N-quinolin-3-yl-propionamide] | 500 nM | 196 nM | – | – | – |
| CN(c1ccc(C(=O)Nc2cnc3ccccc3c2)cn1)C1CCCCC1 [6-(Cyclohexyl-methyl-amino)-N-quinolin-3-yl-nicotinamide] | 300 nM and 245 nM | 35.9 nM and 218 nM | – | 99% | – |
